Read-outs that look alike come from different tables or passages of the source.
Experiments:
DU-145 = experiment: Inhibition of cell growth by counting cells, DU-145; format: cell-based, human; settings: Homo sapiens, DU-145, 72 h, read-out: IC50 (molar) DU-145
Method in brief: (§1)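 Monolayer lines were plated at 1×10^4 cells per well with compound in medium containing 5% FCS. After a 3-day incubation at 37° C, crystal violet staining gave an approximate IC50, and cell counting of duplicate wells gave the dose-response IC50.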

HT-29 = experiment: Inhibition of cell growth by counting cells, HT-29; format: cell-based, human; settings: Homo sapiens, HT-29, 72 h; three days of incubation; read-out: IC50 (molar) HT-29
Method in brief: as §1

MEL-28 = experiment: Inhibition of cell growth by counting cells, MEL-28; format: cell-based, human; settings: Homo sapiens, SK-MEL-28, 72 h; three days of incubation; read-out: IC50 (molar) MEL-28
Method in brief: as §1

A-549 = experiment: Inhibition of cell growth by counting cells, A-549; format: cell-based, human; settings: Homo sapiens, A549, 72 h; three days of incubation; read-out: IC50 (molar) A-549
Method in brief: as §1

P-388 = experiment: Inhibition of cell growth by counting cells, P-388; format: cell-based, mouse; settings: Mus musculus, P388, 72 h; three days of incubation; read-out: IC50 (molar) P-388
Method in brief: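 Mouse P-388 lymphoid neoplasm suspension cells seeded at 1×10^4 cells/well in EMEM 5% FCS containing graded sample concentrations, in duplicate alongside drug-free growth controls. Cells counted by Coulter counter; % growth vs untreated gives dose-response curves, IC50 = concentration producing 50% growth inhibition.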

Compound	IC50 (DU-145) [nM]	IC50 (HT-29) [nM]	IC50 (MEL-28) [nM]	IC50 (A-549) [nM]	IC50 (P-388) [nM]	IC50 (DU-145; three days of incubation) [nM]
CCCC(=O)Oc1cc2c(cc1OC)[C@@]1(CS[C@@H]3c4c(OC(C)=O)c(C)c5c(c4[C@H](COC1=O)N1C3[C@H]3c4c(cc(C)c(OC)c4O)C[C@@H]([C@@H]1C#N)N3C(=O)OC(C)(C)C)OCO5)NCC2 (some centres unmarked) [Compound 192]	5.39	5.39	5.39	5.39	5.39	
COc1cc2c(cc1OC(=O)/C=C/c1ccccc1)CCN[C@]21CS[C@@H]2c3c(OC(C)=O)c(C)c4c(c3[C@H](COC1=O)N1C2[C@H]2c3c(cc(C)c(OC)c3O)C[C@@H]([C@@H]1C#N)N2C(=O)OC(C)(C)C)OCO4 (some centres unmarked) [Compound 194]		50.7	50.7	50.7	50.7	50.7
CCCCCCCC(=O)Oc1cc2c(cc1OC)[C@@]1(CS[C@@H]3c4c(OC(C)=O)c(C)c5c(c4[C@H](COC1=O)N1C3[C@H]3c4c(cc(C)c(OC)c4O)C[C@@H]([C@@H]1C#N)N3C(=O)OC(C)(C)C)OCO5)NCC2 (some centres unmarked) [Compound 195]		10.2	10.2	10.2	10.2	10.2
CCCCCCCC(=O)Oc1cc2c(cc1OC)[C@@]1(CS[C@@H]3c4c(OC(C)=O)c(C)c5c(c4[C@H](COC1=O)N1C3[C@H]3c4c(cc(C)c(OC)c4OC(=O)CCCCCCC)C[C@@H]([C@@H]1C#N)N3C(=O)OC(C)(C)C)OCO5)NCC2 (some centres unmarked) [Compound 196]		9020	9020	9020	9020	9020
CCCCCCCCCCCCCCCC(=O)Oc1cc2c(cc1OC)[C@@]1(CS[C@@H]3c4c(OC(C)=O)c(C)c5c(c4[C@H](COC1=O)N1C3[C@H]3c4c(cc(C)c(OC)c4O)C[C@@H]([C@@H]1C#N)N3C(=O)OC(C)(C)C)OCO5)NCC2 (some centres unmarked) [Compound 197]		9130	9130	9130	9130	9130
CCCCCCCCCCCCCCCC(=O)Oc1cc2c(cc1OC)[C@@]1(CS[C@@H]3c4c(OC(C)=O)c(C)c5c(c4[C@H](COC1=O)N1C3[C@H]3c4c(cc(C)c(OC)c4OC(=O)CCCCCCCCCCCCCCC)C[C@@H]([C@@H]1C#N)N3C(=O)OC(C)(C)C)OCO5)NCC2 (some centres unmarked) [Compound 198]		7500	7500	7500	7500	7500
COc1cc2c(cc1OC(C)=O)CCN[C@]21CS[C@@H]2c3c(OC(C)=O)c(C)c4c(c3[C@H](COC1=O)N1C2[C@@H]2N[C@@H](Cc3cc(C)c(OC)c(O)c32)[C@@H]1C#N)OCO4 (some centres unmarked) [Compound 202]		0.125	0.0625	0.125	0.125	0.0625
CCCC(=O)Oc1cc2c(cc1OC)[C@@]1(CS[C@@H]3c4c(OC(C)=O)c(C)c5c(c4[C@H](COC1=O)N1C3[C@@H]3N[C@@H](Cc4cc(C)c(OC)c(O)c43)[C@@H]1C#N)OCO5)NCC2 (some centres unmarked) [Compound 203]		0.121	0.121	0.121	0.121	0.121
COc1cc2c(cc1OC(=O)/C=C/c1ccccc1)CCN[C@]21CS[C@@H]2c3c(OC(C)=O)c(C)c4c(c3[C@H](COC1=O)N1C2[C@@H]2N[C@@H](Cc3cc(C)c(OC)c(O)c32)[C@@H]1C#N)OCO4 (some centres unmarked) [Compound 204]		0.113	0.113	0.113	0.113	0.113
CCCCCCCC(=O)Oc1cc2c(cc1OC)[C@@]1(CS[C@@H]3c4c(OC(C)=O)c(C)c5c(c4[C@H](COC1=O)N1C3[C@@H]3N[C@@H](Cc4cc(C)c(OC)c(O)c43)[C@@H]1C#N)OCO5)NCC2 (some centres unmarked) [Compound 205]		0.113	0.113	0.113	0.113	0.113
CCCCCCCC(=O)Oc1cc2c(cc1OC)[C@@]1(CS[C@@H]3c4c(OC(C)=O)c(C)c5c(c4[C@H](COC1=O)N1C3[C@@H]3N[C@@H](Cc4cc(C)c(OC)c(OC(=O)CCCCCCC)c43)[C@@H]1C#N)OCO5)NCC2 (some centres unmarked) [Compound 206]		49.6	49.6	49.6	49.6	49.6
CCCCCCCCCCCCCCCC(=O)Oc1cc2c(cc1OC)[C@@]1(CS[C@@H]3c4c(OC(C)=O)c(C)c5c(c4[C@H](COC1=O)N1C3[C@@H]3N[C@@H](Cc4cc(C)c(OC)c(O)c43)[C@@H]1C#N)OCO5)NCC2 (some centres unmarked) [Compound 207]		5.03	5.03	5.03	5.03	5.03
CCCCCCCCCCCCCCCC(=O)Oc1cc2c(cc1OC)[C@@]1(CS[C@@H]3c4c(OC(C)=O)c(C)c5c(c4[C@H](COC1=O)N1C3[C@@H]3N[C@@H](Cc4cc(C)c(OC)c(OC(=O)CCCCCCCCCCCCCCC)c43)[C@@H]1C#N)OCO5)NCC2 (some centres unmarked) [Compound 208]		8110	8110	8110	8110	8110

— patent US7759345B2, “Antitumoral derivatives of ET-743” (priority 2001, dated 2010)
